In ChEMBL document CHEMBL1201862, “PubChem BioAssay data set” (2004):
Calls of active or inactive are those of the source.

Legend:
[1] = molecular target: Potassium voltage-gated channel subfamily KQT member 2 (Rattus norvegicus, UniProt O88943); test: KCNQ2 potassium channel inhibitors, dose response, cell-based, automated electrophysiology, set II, rat KCNQ2 (AID 588637); type: functional
[2] = molecular target: T1, Endoribonuclease toxin MazF (Escherichia coli K-12, UniProt P0AE70); test: fluorescent RNA oligo signal without MazF, dose response, counter-screen for MazEF activator project, biochemical, fluorescence, single-stranded RNase substrate (AID 588502); type: functional
T1 sequence (P0AE70 whole entry): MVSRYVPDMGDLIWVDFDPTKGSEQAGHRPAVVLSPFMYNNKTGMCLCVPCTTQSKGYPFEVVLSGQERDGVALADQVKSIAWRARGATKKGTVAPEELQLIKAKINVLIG

[3] = molecular target: T1, Endoribonuclease toxin MazF; test: MazF toxin RNase activators, dose response, biochemical, fluorescence, single-stranded RNA substrate, uHTS hits (AID 588481); type: functional
[4] = molecular target: Tyrosine-protein phosphatase non-receptor type 5 (Homo sapiens, UniProt P54829); test: STEP phosphatase inhibitors, confirmation, biochemical, fluorescence intensity, uHTS hits (AID 602372); type: functional; details: read-out: IC50_Mean
[5] = molecular target: Dual specificity protein phosphatase 3 (Homo sapiens, UniProt P51452); test: VHR phosphatase inhibition, dose response, selectivity assay for STEP inhibitor project, biochemical (AID 602374); type: functional; details: read-out: IC50_Mean
[6] = molecular target: Tyrosine-protein phosphatase non-receptor type 11 (Homo sapiens, UniProt Q06124); test: SHP2 phosphatase inhibition, dose response, selectivity assay for STEP inhibitor project, biochemical (AID 602367); type: functional; details: read-out: IC50_Mean
HEK293 [7] = test: cells; details: Homo sapiens
HEK293 [8] = test: cells; details: Homo sapiens; remark: listed apart in the source
[9] = molecular target: T2, Sentrin-specific protease 6 (Homo sapiens, UniProt Q9GZR1); type: functional;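 further: Luminescence-based dose-response confirmatory assay of SENP6 inhibition, following up an ultra-high-throughput screen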
T2 sequence (Q9GZR1 whole entry): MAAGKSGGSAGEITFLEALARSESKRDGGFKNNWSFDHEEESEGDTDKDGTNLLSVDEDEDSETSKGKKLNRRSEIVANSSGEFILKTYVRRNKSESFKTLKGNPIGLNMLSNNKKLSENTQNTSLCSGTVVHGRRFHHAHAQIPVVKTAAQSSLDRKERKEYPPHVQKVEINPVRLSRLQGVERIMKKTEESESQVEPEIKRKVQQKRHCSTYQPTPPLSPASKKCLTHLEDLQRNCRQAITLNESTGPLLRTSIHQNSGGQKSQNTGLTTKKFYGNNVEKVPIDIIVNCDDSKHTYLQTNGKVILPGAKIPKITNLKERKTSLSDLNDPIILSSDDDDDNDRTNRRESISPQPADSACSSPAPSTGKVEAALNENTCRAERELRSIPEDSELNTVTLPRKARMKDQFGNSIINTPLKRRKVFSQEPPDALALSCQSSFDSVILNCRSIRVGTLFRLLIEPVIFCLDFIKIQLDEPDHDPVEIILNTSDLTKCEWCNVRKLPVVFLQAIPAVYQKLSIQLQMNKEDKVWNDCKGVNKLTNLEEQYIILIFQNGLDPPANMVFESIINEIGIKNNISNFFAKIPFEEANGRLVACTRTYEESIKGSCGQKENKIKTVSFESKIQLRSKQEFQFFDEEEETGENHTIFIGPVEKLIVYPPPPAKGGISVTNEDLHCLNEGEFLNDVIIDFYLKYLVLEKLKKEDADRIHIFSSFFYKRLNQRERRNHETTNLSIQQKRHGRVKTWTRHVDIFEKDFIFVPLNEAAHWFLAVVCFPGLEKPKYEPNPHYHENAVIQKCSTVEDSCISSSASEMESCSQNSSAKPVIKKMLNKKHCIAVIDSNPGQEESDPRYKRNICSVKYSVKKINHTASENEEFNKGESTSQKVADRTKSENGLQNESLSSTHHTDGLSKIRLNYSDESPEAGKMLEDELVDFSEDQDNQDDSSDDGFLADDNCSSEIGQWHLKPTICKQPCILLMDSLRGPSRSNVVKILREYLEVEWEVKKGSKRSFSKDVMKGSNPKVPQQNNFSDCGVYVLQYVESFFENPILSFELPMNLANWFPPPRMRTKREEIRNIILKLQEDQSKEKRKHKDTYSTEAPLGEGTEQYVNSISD

[10] = molecular target: T3, Sentrin-specific protease 7 (Homo sapiens, UniProt Q9BQF6); type: functional;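 further: Luminescence-based dose-response confirmation of ultra-high-throughput screening hits, measuring inhibition of SENP7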
T3 sequence (Q9BQF6 whole entry): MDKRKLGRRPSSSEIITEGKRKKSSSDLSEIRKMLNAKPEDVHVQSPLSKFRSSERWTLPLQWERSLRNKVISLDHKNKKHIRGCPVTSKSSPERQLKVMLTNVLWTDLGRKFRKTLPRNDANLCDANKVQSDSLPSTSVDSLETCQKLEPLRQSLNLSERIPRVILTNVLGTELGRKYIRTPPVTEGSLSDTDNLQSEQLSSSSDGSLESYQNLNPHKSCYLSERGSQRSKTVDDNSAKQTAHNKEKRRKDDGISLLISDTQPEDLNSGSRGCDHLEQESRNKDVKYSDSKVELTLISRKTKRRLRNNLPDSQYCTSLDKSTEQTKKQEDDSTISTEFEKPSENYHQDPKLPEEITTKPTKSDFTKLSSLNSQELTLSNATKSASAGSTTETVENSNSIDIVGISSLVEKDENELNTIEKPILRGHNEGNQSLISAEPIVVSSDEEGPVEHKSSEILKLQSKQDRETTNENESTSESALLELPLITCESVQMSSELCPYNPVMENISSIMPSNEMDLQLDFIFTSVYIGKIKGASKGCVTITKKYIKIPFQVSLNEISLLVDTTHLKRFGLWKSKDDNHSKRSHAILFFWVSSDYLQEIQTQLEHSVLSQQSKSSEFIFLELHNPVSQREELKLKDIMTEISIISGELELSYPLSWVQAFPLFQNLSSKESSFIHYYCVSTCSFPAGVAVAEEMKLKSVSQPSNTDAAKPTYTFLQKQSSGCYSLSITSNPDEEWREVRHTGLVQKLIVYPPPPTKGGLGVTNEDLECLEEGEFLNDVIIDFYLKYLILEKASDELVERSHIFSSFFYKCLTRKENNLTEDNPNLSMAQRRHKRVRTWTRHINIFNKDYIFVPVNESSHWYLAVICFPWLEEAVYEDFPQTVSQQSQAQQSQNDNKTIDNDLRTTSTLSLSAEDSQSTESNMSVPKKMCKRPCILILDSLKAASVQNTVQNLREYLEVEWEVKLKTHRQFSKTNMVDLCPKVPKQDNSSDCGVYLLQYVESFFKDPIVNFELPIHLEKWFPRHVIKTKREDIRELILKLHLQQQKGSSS

Caspase-3 = molecular target: T4, Caspase-3 (Homo sapiens, UniProt P42574); type: functional;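 further: Dose-response selectivity test against caspase-3 for candidate inhibitors of sentrin-specific proteases (SENPs)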
T4 sequence (P42574 whole entry): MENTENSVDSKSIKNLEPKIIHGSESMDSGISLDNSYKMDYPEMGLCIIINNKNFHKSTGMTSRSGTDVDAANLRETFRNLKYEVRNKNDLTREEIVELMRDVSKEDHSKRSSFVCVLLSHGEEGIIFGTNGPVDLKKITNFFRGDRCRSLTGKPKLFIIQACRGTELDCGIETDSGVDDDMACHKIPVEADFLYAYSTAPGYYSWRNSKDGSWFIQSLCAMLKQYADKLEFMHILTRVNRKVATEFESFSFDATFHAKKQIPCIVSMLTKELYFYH

[11] = molecular target: T5, Sentrin-specific protease 8 (Homo sapiens, UniProt Q96LD8); type: functional;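 further: luminescence read-out of SENP8 inhibition, dose-response confirmation following an ultra-high-throughput screen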
T5 sequence (Q96LD8 whole entry): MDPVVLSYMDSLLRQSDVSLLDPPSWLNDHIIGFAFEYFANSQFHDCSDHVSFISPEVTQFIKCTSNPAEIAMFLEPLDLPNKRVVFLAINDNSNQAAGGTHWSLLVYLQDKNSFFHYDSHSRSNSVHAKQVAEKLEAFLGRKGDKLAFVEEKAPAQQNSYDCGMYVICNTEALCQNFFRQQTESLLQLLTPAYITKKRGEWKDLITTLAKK

[12] = ARNT/TACC3 interaction disruptors, potency, confirmation, biochemical, AlphaScreen, cherry-picked samples (AID 651703); type: functional, Homo sapiens;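 further: His-tagged ARNT PAS-B domain paired with GST-TACC3 E629A dimer coactivator fragment; potency of inhibitors that break up the complex and lower AlphaScreen signal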

Sequence of Tyrosine-protein phosphatase non-receptor type 5 (P54829 whole entry): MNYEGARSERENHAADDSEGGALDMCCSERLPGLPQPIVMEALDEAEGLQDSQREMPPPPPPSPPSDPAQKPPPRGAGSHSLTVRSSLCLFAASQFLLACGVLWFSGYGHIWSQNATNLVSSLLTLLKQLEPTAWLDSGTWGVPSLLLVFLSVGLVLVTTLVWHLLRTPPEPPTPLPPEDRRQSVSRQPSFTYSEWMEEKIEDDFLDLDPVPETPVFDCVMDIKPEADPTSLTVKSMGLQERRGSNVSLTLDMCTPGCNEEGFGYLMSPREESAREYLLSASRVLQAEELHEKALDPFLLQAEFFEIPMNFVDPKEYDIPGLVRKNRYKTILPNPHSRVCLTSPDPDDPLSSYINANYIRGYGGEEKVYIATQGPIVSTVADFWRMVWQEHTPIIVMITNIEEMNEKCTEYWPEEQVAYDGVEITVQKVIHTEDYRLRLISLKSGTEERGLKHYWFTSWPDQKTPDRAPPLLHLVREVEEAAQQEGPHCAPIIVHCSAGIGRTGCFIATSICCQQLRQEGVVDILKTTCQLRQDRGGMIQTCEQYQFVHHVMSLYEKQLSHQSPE
Sequence of Potassium voltage-gated channel subfamily KQT member 2 (O88943 whole entry): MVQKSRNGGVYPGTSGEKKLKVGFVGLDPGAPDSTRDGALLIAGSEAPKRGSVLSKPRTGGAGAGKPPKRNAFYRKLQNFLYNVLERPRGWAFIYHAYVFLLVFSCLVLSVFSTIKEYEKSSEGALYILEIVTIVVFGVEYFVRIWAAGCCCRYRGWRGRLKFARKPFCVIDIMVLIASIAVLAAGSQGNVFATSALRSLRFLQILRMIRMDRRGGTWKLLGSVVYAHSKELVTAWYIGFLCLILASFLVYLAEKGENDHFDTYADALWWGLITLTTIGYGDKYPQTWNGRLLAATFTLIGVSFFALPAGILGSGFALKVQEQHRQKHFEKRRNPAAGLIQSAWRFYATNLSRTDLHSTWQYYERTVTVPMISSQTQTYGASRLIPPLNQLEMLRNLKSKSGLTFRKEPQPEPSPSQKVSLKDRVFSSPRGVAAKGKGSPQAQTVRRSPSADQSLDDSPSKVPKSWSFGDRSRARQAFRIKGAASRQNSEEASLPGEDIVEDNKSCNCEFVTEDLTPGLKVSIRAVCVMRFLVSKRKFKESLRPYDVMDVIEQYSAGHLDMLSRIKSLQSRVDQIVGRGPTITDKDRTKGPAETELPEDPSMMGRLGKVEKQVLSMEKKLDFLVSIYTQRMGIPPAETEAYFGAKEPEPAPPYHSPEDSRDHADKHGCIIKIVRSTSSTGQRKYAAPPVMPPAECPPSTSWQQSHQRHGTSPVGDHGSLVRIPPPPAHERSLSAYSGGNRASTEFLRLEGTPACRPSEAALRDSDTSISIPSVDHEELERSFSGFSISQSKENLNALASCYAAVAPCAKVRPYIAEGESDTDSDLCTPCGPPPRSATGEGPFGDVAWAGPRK
Sequence of Tyrosine-protein phosphatase non-receptor type 11 (Q06124 whole entry): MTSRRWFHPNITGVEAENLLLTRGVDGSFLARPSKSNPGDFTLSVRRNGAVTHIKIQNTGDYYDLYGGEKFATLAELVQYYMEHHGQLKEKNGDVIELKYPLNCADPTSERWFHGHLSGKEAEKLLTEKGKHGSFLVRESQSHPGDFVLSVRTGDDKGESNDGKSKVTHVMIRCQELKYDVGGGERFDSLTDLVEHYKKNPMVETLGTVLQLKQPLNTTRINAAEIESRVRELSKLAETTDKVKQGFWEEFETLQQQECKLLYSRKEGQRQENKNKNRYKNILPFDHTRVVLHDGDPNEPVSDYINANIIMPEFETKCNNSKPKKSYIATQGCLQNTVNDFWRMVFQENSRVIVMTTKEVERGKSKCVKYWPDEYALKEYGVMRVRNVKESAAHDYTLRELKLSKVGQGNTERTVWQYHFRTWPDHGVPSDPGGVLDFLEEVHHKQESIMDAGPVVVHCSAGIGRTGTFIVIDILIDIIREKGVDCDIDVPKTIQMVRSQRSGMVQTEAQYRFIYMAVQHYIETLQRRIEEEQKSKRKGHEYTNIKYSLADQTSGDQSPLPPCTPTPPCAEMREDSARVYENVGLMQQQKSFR
Sequence of Dual specificity protein phosphatase 3 (P51452 whole entry): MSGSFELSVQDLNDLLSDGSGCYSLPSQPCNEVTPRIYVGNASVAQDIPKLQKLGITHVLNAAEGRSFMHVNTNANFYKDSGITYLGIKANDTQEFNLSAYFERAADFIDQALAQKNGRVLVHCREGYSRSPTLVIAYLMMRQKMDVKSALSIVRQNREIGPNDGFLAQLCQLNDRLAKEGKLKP

Q: For `CC1Oc2ccccc2N(CC(=O)N(Cc2ccccc2)Cc2ccccn2)C1=O` (stereo not given), which IC50 [1] is on record?
A: 1 µM (active)

Q: Which results are given for `Cn1c(CNc2ccc(O)cc2)nc2ccccc21`?
A: EC50 [2]: > 99 µM (inactive); EC50 [3]: > 99 µM (inactive)

Q: For `O=C(COc1ccc(/C=N/NC(=O)c2ccncc2)cc1)Nc1ccc([N+](=O)[O-])cc1`, which IC50 [4] is on record?
A: > 80 µM (inactive)

Q: What about the IC50 [5] of the same compound?
A: 21.7 µM (inactive)

Q: And the IC50 [6]?
A: 6.08 µM (active)

Q: With `COc1ccc(/N=c2\oc3cc(O)ccc3cc2C(=O)NCC2CCCO2)c(OC)c1` (stereo not given) as the compound, how does the EC50 [2] read?
A: > 99 µM (inactive)

Q: And the EC50 (HEK293 [7])?
A: > 59.6 µM (inactive)

Q: And the EC50 [3]?
A: > 99 µM (inactive)

Q: What about the EC50 (HEK293 [8]) of the same compound?
A: > 59.6 µM (inactive)

Q: For `O=c1/c(=C\c2ccc3c(c2)OCO3)sc2n1CCCN=2`, which IC50 [9] is on record?
A: 33.6 µM (active)

Q: What about the IC50 [10] of the same compound?
A: 12.6 µM (active)

Q: And the IC50 (Caspase-3)?
A: 17 µM (active)

Q: What about the IC50 [11] of the same compound?
A: 34.1 µM (active)

Q: For `O=C(CSc1cccc2cccnc12)N/N=C/c1ccncc1`, which AC50 [12] is on record?
A: 110 µM (active)
